Measured values as given in patent US20240368640A1, “METHODS OF PURIFYING CANNABINOIDS” (AMYRIS, INC., priority 2021, published 2024).
Entries after “also recorded” stand apart in the source; their conditions may differ.

Experiments:
[1] = Visual assessment of CBDA solubility in overlay oils; format: physicochemical; conditions: CBDA as hemp oil with 50% CBDA, target concentration greater than 50 g/L
Procedure: Visual appearances of solutions containing CBDA (as hemp oil with 50% CBDA) were assessed for JARCOL™ I-16, soybean oil, castor oil, ESTEREX™ A 51, sunflower oil, DRAKEOL® 19, and DURASYN® 164. A target CBD concentration of greater than 50 g/L was desired for this set of experiments. Upon visual inspection, it was determined that CBDA was soluble in JARCOL™ I-16, soybean oil, castor oil, ESTEREX™ A 51, and sunflower oil, but was insoluble in DRAKEOL® 19 and DURASYN® 164 at the target concentration. Insolubility was evidenced by the presence of precipitates in solutions of DRAKEOL® 19 or DURASYN® 164 (FIG. 9).

[2] = test system: wild-type yeast (strain Y46850); assay: Growth of wild-type yeast in culture media containing an overlay oil (optical density); format: cell-based, S. cerevisiae
Procedure: The ability of yeast cells (S. cerevisiae) to grow normally in culture media containing an overlay oil was assessed. Wild-type yeast (strain Y46850) was cultured in the presence of soybean oil, sunflower oil, safflower oil, castor oil, or JARCOL™ I-16. Cell growth was measured by assessing the optical density (OD) of the yeast culture suspensions in three independent experiments (SF1, SF2, and SF3) (FIGS. 1-3).

[3] = Solubility of hexanoate in soybean oil by gas chromatography (GC-FID); conditions: oil or lipid
[4] = oil/hemp oil 10:1 v/v, visual inspection
[5] = oil/hemp oil 10:1 v/v, visual inspection (precipitates)

Compound: C=C(C)[C@@H]1CCC(C)=C[C@H]1c1c(O)cc(CCCCC)c(C(=O)O)c1O [CBDA, cannabidiolic acid]
- Solubility of CBDA in JARCOL I-16 [1, 4]: soluble; also recorded: good solubility
- Solubility of CBDA in castor oil [1, 4]: soluble; also recorded: good solubility
- Solubility of CBDA in soybean oil [1, 4]: soluble; also recorded: good solubility
- Solubility of CBDA in DRAKEOL 19 [1, 5]: insoluble; also recorded: lower solubility
- Solubility of CBDA in DURASYN 164 [1, 5]: insoluble; also recorded: lower solubility
- Solubility of CBDA in ESTEREX A 51 ([1]; visual inspection): soluble
- Solubility of CBDA in sunflower oil ([1]; visual inspection): soluble

Compound: CCCCCCCCC(CO)CCCCCC (centres unmarked) [JARCOL™ I-16]
- Cell growth (optical density) versus control (no oil) ([2]; flask experiment SF2, strain Y46850 (FIG. 2)): not significantly different
- Cell growth (optical density) versus control (no oil) ([2]; flask experiment SF3, strain Y46850 (FIG. 3)): not significantly different
- Cell growth (optical density) versus control (no oil) ([2]; wild-type yeast strain Y46850 cultured with overlay oil, three independent experiments SF1, SF2, SF3): not significantly different

Compound: CCCCCC(=O)O [hexanoate]
- solubility [3]: ≤ 185 mg/mL
